Blank lines part the entries; values can stand above or below the compound they belong to.
Molecular target: T1, GATA4–NKX2-5 transcriptional synergy (Mus musculus, UniProt P42582+Q08369)
T1 construct: expressed in transfected cells; host or cells: COS-1
Assay: GATA4–NKX2-5 transcriptional synergy luciferase reporter assay (3xNKE reporter, COS-1 cells)
Assay type: cell-based
Protocol: To screen compounds for the GATA4–NKX2-5 interaction, we have developed a luciferase reporter assay based on their property to activate gene transcription synergistically through the NKX2-5 binding site on DNA.[28] In this assay, we transfected mammalian COS-1 cells with protein expression vectors for GATA4 and NKX2-5 proteins together with artificial luciferase reporter vector containing three high affinity binding sites for NKX2-5 (NKE). […] All 257 compounds were tested in two concentrations, 3 and 10 μM. Compounds either inhibited, enhanced, or had no effect on the GATA4–NKX2-5 transcriptional synergy. To investigate the selectivity of the active compounds, we tested their effects on NKX2-5 transcriptional activity by using the same luciferase reporter vector as in transcriptional synergy assay with three NKE sites (Figure 3B). Furthermore, we used GATA luciferase reporter assay to examine if compounds have an effect on GATA4 transcriptional activity. In this assay, we cotransfected the cells with a GATA4 protein expression vector and a reporter vector with tandem GATA4 binding sites (Figure 3C). Previously we have reported that compound 1 inhibited the GATA4–NKX2-5 transcriptional synergy at micromolar concentrations (IC50 = 3 μM).[29]
The plasmids expressing mouse GATA4 protein, pMT2-GATA4, and empty pMT2 were gifts from D. B. Wilson (Department of Pediatrics, St. Louis Children’s Hospital, St. Louis, MO).[44] The plasmids expressing mouse NKX2-5 protein, pMT2-NKX2-5, have been described earlier.[28] The luciferase reporter plasmid used in GATA4–NKX2-5 transcriptional synergy assay and NKX transcriptional assay, pGL3-3xHA, contains three high affinity binding sites for NKX2-5.[28] The luciferase reporter plasmid used in GATA transcriptional assay, NP-112, contains tandem GATA-sites and minimal promoter of rat brain natriuretic peptide (BNP) gene.[45] The pGL3-BNP luciferase reporter containing −534/+4 bp rat BNP proximal promoter described previously was used in hypertrophy assay.[46]
The primary screening assay of compounds’ effect on GATA4–NKX2-5 transcriptional synergy and COS-1 cell culturing has been described earlier.[33] […] (Kinnunen et al., unpublished observation). Briefly, COS-1 cells were seeded at 14 000 cells/well in Isoplate-96 microplates (PerkinElmer, Turku, Finland) and grown overnight. The cells were transfected with the luciferase reporter plasmid pGL3-3xHA 100 ng/well and equal amounts of expression plasmids pMT2-GATA4 and pMT2-NKX2-5 total 50 ng/well. To verify the synergistic effect, the cells were transfected with pMT2-GATA4 or pMT2-NKX2-5 25 ng/well, and the total DNA concentration was adjusted to 50 ng/well with empty pMT2 plasmid. In NKX2-5 and GATA4 luciferase reporter assays, the cells were transfected with reporter plasmid pGL3-3xHA or NP-112 (100 ng/well) and expression plasmid pMT2-NKX2-5 or pMT2-GATA4 (25 ng/well). The ratio of DNA/transfection reagent (Fugene 6, Promega) was 1:3 in all assays. The transfections were performed in serum and antibiotics free media for 6 h. The cells were treated with compounds or vehicle (0.1% DMSO) for 24 h, and the luminescence was measured using neolite Reporter Gene Assay System (PerkinElmer, Turku, Finland) and Victor2 plate reader (PerkinElmer, Turku, Finland).
Raw luciferase data were analyzed in Excel, and clear outliers were removed from triplicates by using the Grubb’s test. Data analysis was performed using R.[49] The luciferase data were first normalized on the basis of the combined mean value of controls. For data visualization and creation of figures, the following R packages were used: ggplot2, cowplot, RColorBrewer, and pheatmap. The heatmaps of the toxicity data were produced with GraphPad Prism 7.00 (GraphPad Software, La Jolla, CA). Statistical significance of luciferase reporter assay data was evaluated by randomized block analysis of variance followed by Dunnett’s post hoc test. […]

[1] = COS-1, compound at 3 µM, luciferase reporter activity, % of control
[2] = COS-1, compound at 10 µM, luciferase reporter activity, % of control
[3] = COS-1, compound 3 µM, luciferase reporter activity relative to control
[4] = COS-1, compound 10 µM, luciferase reporter activity relative to control
[5] = COS-1, 3 µM, luciferase reporter activity, % of control
[6] = COS-1, 10 µM, luciferase reporter activity, % of control
[7] = 3 µM compound, GATA4–NKX2-5 transcriptional synergy reporter, COS-1 cells
[8] = 10 µM compound, GATA4–NKX2-5 transcriptional synergy reporter, COS-1 cells
[9] = COS-1, compound 3 µM, luciferase reporter activity, spread in separate STDEV column
[10] = COS-1, compound 10 µM, luciferase reporter activity, spread in separate STDEV column

T1 sequence (Q08369 whole entry): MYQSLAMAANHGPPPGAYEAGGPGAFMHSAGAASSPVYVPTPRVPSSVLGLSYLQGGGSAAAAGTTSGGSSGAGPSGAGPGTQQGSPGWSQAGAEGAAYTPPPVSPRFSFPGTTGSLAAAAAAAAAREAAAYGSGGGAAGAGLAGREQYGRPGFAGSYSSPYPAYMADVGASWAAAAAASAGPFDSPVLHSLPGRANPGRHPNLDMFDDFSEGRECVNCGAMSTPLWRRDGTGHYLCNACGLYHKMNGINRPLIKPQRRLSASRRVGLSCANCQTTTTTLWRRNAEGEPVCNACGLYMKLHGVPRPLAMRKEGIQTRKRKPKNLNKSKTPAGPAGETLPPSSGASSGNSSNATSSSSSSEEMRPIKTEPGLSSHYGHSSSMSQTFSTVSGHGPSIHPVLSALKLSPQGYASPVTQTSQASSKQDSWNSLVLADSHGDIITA
T1 sequence (P42582 whole entry): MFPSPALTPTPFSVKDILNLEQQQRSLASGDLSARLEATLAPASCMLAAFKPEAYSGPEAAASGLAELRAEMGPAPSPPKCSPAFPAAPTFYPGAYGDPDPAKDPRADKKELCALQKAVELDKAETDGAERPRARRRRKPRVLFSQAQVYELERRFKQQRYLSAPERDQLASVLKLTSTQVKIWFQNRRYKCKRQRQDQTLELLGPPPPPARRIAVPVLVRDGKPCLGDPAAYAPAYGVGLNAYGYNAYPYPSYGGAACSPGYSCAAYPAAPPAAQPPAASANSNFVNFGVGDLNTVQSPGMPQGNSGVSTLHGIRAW

activity at 3 µM [1]: 106%
activity at 10 µM [2]: 113%
SMILES: Cc1onc(-c2ccccc2)c1C(=O)N(N)S(=O)(=O)c1ccccc1 [SI27]

activity at 3 µM [3]: 82.9%
activity at 10 µM [4]: 82.5%
SMILES: CCN(CC)c1ccc(N(CCC2OCCO2)C(=O)c2c(-c3cccc([N+](=O)[O-])c3)noc2C)cc1 [SI29]

activity at 3 µM [3]: 74.9%
activity at 10 µM [4]: 86%
SMILES: CCN(CC)c1ccc(N(CCOC)C(=O)c2c(-c3cccc([N+](=O)[O-])c3)noc2C)cc1 [SI30]

activity at 3 µM [5]: 66.7%
activity at 10 µM [6]: 78.2%
SMILES: Cc1onc(-c2ccccc2)c1NC(=O)CCCCCBr [SI31]

activity at 3 µM [5]: 110%
activity at 10 µM [6]: 96.2%
SMILES: COc1ccc(C(=O)Nc2c(-c3ccccc3)noc2C)cc1 [SI32]

activity at 3 µM [1]: 95.3%
activity at 10 µM [2]: 112%
SMILES: Cc1onc(-c2ccccc2)c1NC(=O)c1ccc(CN(C)C)cc1 [SI33]

activity at 3 µM [5]: 97.8%
activity at 10 µM [6]: 77.6%
SMILES: CCCCCc1ccc(C(=O)Nc2c(-c3ccccc3)noc2C)cc1 [SI34]

activity at 3 µM [3]: 89.2%
activity at 10 µM [4]: 75.8%
SMILES: CCCCCc1ccc(C(=S)Nc2c(-c3ccccc3)noc2C)cc1 [SI35]

activity at 3 µM [1]: 87%
activity at 10 µM [2]: 117%
SMILES: CCN(CCO)c1ccc(N(C)C(=O)c2c(-c3ccccc3)noc2C)cc1 [SI36]

activity at 3 µM [1]: 108%
activity at 10 µM [2]: 87.4%
SMILES: Cc1onc(-c2ccccc2)c1C(=S)Nc1ccc(OCc2ccccc2)cc1 [SI37]

activity at 3 µM [1]: 72.7%
activity at 10 µM [2]: 112%
SMILES: CCN(c1ccc(NC(=S)c2c(-c3ccccc3)noc2C)cc1)C(C)C [SI38]

activity at 3 µM [7]: 123%
activity at 10 µM [8]: 106%
SMILES: Cc1onc(-c2ccccc2)c1C(=O)Nc1ccc2c(c1)C(=O)CC(C)(C)O2 [SI39]

activity at 3 µM [7]: 94.8%
activity at 10 µM [8]: 99.6%
SMILES: Cc1onc(-c2ccccc2)c1CNc1ccc2oc(-c3ccccc3)cc(=O)c2c1 [SI40]

activity at 3 µM [3]: 110%
activity at 10 µM [4]: 100%
SMILES: CCN(CC)c1ccc(NCc2ccncc2)cc1 [SI41]

activity at 3 µM [5]: 82.9%
activity at 10 µM [6]: 118%
SMILES: Cc1onc(-c2ccccc2)c1N=Cc1ccc(N(CCO)CCO)cc1 [SI42]

activity at 3 µM [9]: 109%
activity at 10 µM [10]: 99.7%
SMILES: Cc1onc(-c2ccccc2)c1NCc1ccc(N(CCO)CCO)cc1 [SI43]

activity at 3 µM [5]: 88.4%
activity at 10 µM [6]: 98.2%
SMILES: Cc1onc(-c2ccccc2)c1/N=C/c1ccc(C(C)N(C)C)cc1 (stereo not drawn) [SI45]

activity at 3 µM [1]: 98.9%
activity at 10 µM [2]: 102%
SMILES: CN(C)c1ccc(/C=N/c2c(-c3ccccc3)nc3ncccn23)cc1 [SI46]

activity at 3 µM [3]: 89.3%
activity at 10 µM [4]: 95.3%
SMILES: CCC(=O)c1ccc(OCc2c(C)noc2-c2ccccc2)cc1 [SI47]

activity at 3 µM [5]: 92.6%
activity at 10 µM [6]: 82.9%
SMILES: Cc1onc(-c2ccccc2)c1COCc1ccc(OC(F)(F)F)cc1 [SI49]

activity at 3 µM [7]: 91.4%
activity at 10 µM [8]: 97.4%
SMILES: CCc1noc(C)c1C(=O)Nc1ccc2oc(-c3ccccc3)cc(=O)c2c1 [SI50]

activity at 3 µM [7]: 96.2%
activity at 10 µM [8]: 75.2%
SMILES: Cc1onc(-c2ccccc2Cl)c1C(=O)Nc1ccc2oc(-c3ccccc3)cc(=O)c2c1 [SI51]

activity at 3 µM [1]: 93.1%
activity at 10 µM [2]: 91%
SMILES: Cc1cc(NC(=O)c2c(-c3cccc([N+](=O)[O-])c3)noc2C)ccc1C(C)C [SI52]

activity at 3 µM [1]: 81.2%
activity at 10 µM [2]: 70.1%
SMILES: CCN(CC)c1ccc(NC(=S)c2c(-c3c(Cl)cccc3Cl)noc2C)cc1 [SI53]

activity at 3 µM [3]: 78.8%
activity at 10 µM [4]: 65%
SMILES: CCN(CC)c1ccc(NC(=O)c2c(-c3ccccc3)nnn2CCC2OCCO2)cc1 [SI58]

activity at 3 µM [3]: 97.8%
activity at 10 µM [4]: 72.4%
SMILES: CCN(CC)c1ccc(NC(=O)c2c(-c3ccccc3)nnn2Cc2ccccc2)cc1 [SI60]

activity at 3 µM [3]: 101%
activity at 10 µM [4]: 100%
SMILES: COC(=O)c1c(-c2ccccc2)nnn1CC1CCCO1 (stereo not drawn) [SI61]

activity at 3 µM [3]: 88.2%
activity at 10 µM [4]: 72.5%
SMILES: CCN(CC)c1ccc(NC(=O)c2c(-c3ccccc3)nnn2CC2CCCO2)cc1 (stereo not drawn) [SI62]

activity at 3 µM [3]: 83.6%
activity at 10 µM [4]: 69.1%
SMILES: CCN(CC)c1ccc(NC(=O)c2c(-c3ccccc3)nnn2CC(C)C)cc1 [SI68]

activity at 3 µM [3]: 96.6%
activity at 10 µM [4]: 87.9%
SMILES: CCN(CC)c1ccc(C(=O)Cn2nnnc2-c2ccccc2)cc1 [SI69]

activity at 3 µM [1]: 109%
activity at 10 µM [2]: 100%
SMILES: COc1ccc(NC(=O)c2cnoc2-c2ccccc2)cc1 [SI70]

activity at 3 µM [3]: 109%
activity at 10 µM [4]: 105%
SMILES: Cc1noc(-c2ccccc2)c1C(=O)Nc1ccc(CN(C)C)cc1 [SI71]

activity at 3 µM [3]: 102%
activity at 10 µM [4]: 95%
SMILES: Cc1cc(NC(=O)c2c(C)noc2-c2ccccc2)ccc1C(C)C [SI72]

activity at 3 µM [9]: 86%
activity at 10 µM [10]: 97.9%
SMILES: CCN(CC)c1ccc(NC(=O)c2c(C)noc2-c2noc(C)c2C)cc1 [SI73]

activity at 3 µM [9]: 97.4%
activity at 10 µM [10]: 104%
SMILES: CCN(CC)c1ccc(NC(=O)c2c(C)noc2-c2cc(CCOc3ccccn3)on2)cc1 [SI74]

activity at 3 µM [9]: 97.5%
activity at 10 µM [10]: 88.8%
SMILES: CCc1cc(-c2onc(C)c2C(=O)Nc2ccc(N(CC)CC)cc2)no1 [SI75]

activity at 3 µM [9]: 108%
activity at 10 µM [10]: 100%
SMILES: CCN(CC)c1ccc(NC(=O)c2c(C)noc2-c2cc(-c3ccco3)on2)cc1 [SI76]

activity at 3 µM [9]: 122%
activity at 10 µM [10]: 121%
SMILES: Cc1cc(-c2onc(C)c2C(=O)N(C)c2ccc3oc(-c4ccccc4)cc(=O)c3c2)no1 [SI77]

activity at 3 µM [7]: 98.1%
activity at 10 µM [8]: 82.3%
SMILES: CCN(CC)c1ccc(NCc2c[nH]nc2-c2ccc(F)cc2)cc1 [SI81]

activity at 3 µM [1]: 103%
activity at 10 µM [2]: 87.6%
SMILES: Fc1ccc(-c2n[nH]cc2C=Nc2ccc(N3CCOCC3)cc2)cc1 [SI82]

activity at 3 µM [7]: 99%
activity at 10 µM [8]: 103%
SMILES: CCN(CC)c1ccc(NCc2c[nH]nc2-c2cccs2)cc1 [SI83]

activity at 3 µM [3]: 91.3%
activity at 10 µM [4]: 84.8%
SMILES: CCN(CC)c1ccc(CNCc2c[nH]nc2-c2ccccc2)cc1 [SI84]

activity at 3 µM [7]: 88.4%
activity at 10 µM [8]: 82.1%
SMILES: CCN(CC)c1ccc(NCc2c[nH]nc2C2CCCCC2)cc1 [SI85]

activity at 3 µM [9]: 94.8%
activity at 10 µM [10]: 70.7%
SMILES: CCN(CC)c1ccc(NC(=O)c2c[nH]nc2C2CCCCC2)cc1 [SI86]

activity at 3 µM [7]: 88.1%
activity at 10 µM [8]: 68.4%
SMILES: Cc1cc(NC(=O)c2cnn(C)c2-c2ccccc2)ccc1C(C)C [SI87]

activity at 3 µM [7]: 102%
activity at 10 µM [8]: 71.2%
SMILES: O=C(Nc1ccc2oc(-c3ccccc3)cc(=O)c2c1)c1c[nH]nc1-c1ccccc1 [SI90]

activity at 3 µM [1]: 94.2%
activity at 10 µM [2]: 89.2%
SMILES: COc1ccc(-c2cc(N=Cc3ccc(N(C)C)cc3)n[nH]2)cc1 [SI91]

activity at 3 µM [1]: 93.3%
activity at 10 µM [2]: 107%
SMILES: CN(C)c1ccc(C=Nc2cc(-c3ccccc3)nn2-c2ccccc2)cc1 [SI93]

activity at 3 µM [3]: 91.9%
activity at 10 µM [4]: 89.3%
SMILES: COc1ccc(-c2n[nH]c(N)c2/N=N/c2ccc(C(=O)O)cc2)cc1 [SI95]

activity at 3 µM [3]: 97.6%
activity at 10 µM [4]: 78.6%
SMILES: CCCCOC(=O)c1ccc(N=Nc2c(-c3ccc(OC)cc3)n[nH]c2N)cc1 [SI96]

activity at 3 µM [5]: 73.3%
activity at 10 µM [6]: 61.2%
SMILES: Nc1c(/N=N/c2ccc([N+](=O)[O-])cc2)c(-c2ccccc2)nn1-c1ccccc1 [SI97]
